Measured values from patent US11312727B1, “Macrocyclic flu endonuclease inhibitors” (Janssen BioPharma, Inc., priority 2018, dated 2022).

Key:
[1] = test system: Influenza strain A549 A/WSN/33 (H1N1); assay: microbe, parasite or virus in culture; format: cell-based; settings: Influenza A virus, A549, 20 h, A549 cells, influenza A/WSN/33 (H1N1), 20 hours incubation; read-out: A549_A(H1N1) EC50
in vitro = settings: human, CC50, uninfected A549 cells, CellTiter-Glo

SMILES	EC50 [1] [nM]	CC50 (in vitro) [nM]
O=C1c2c(O)c(=O)ccn2N2CN1[C@H](C1CC1)/C=C/COc1c(ccc(F)c1F)[C@H]2c1ccccc1 (single isomer, unassigned) [Compound 152BB, (9*R,18*R,*E)-9-cyclopropyl-3,4-difluoro-12-hydroxy-18-phenyl-6,9-dihydro-18H-10,17-methanobenzo[b]pyrido[1,2-f][1]oxa[5,6,9]triazacyclotridecine-11,13-dione]	1.8	> 200
COC[C@@H]1/C=C/COc2c(ccc(F)c2F)[C@H](c2ccccc2)N2CN1C(=O)c1c(O)c(=O)ccn12 (single isomer, unassigned) [Compound 153AA, (9*S,18*S,*E)-3,4-difluoro-12-hydroxy-9-(methoxymethyl)-18-phenyl-6,9-dihydro-18H-10,17-methanobenzo[b]pyrido[1,2-f][1]oxa[5,6,9]triazacyclotridecine-11,13-dione]	> 50	> 100
COC[C@H]1/C=C/COc2c(ccc(F)c2F)[C@H](c2ccccc2)N2CN1C(=O)c1c(O)c(=O)ccn12 (single isomer, unassigned) [Compound 153AB, (9*R,18*S,*E)-3,4-difluoro-12-hydroxy-9-(methoxymethyl)-18-phenyl-6,9-dihydro-18H-10,17-methanobenzo[b]pyrido[1,2-f][1]oxa[5,6,9]triazacyclotridecine-11,13-dione]	> 50	> 100
COC[C@@H]1/C=C/COc2c(ccc(F)c2F)[C@@H](c2ccccc2)N2CN1C(=O)c1c(O)c(=O)ccn12 (single isomer, unassigned) [Compound 153BA, (9*S,18*R,*E)-3,4-difluoro-12-hydroxy-9-(methoxymethyl)-18-phenyl-6,9-dihydro-18H-10,17-methanobenzo[b]pyrido[1,2-f][1]oxa[5,6,9]triazacyclotridecine-11,13-dione]	4.2	> 100
COC[C@H]1/C=C/COc2c(ccc(F)c2F)[C@@H](c2ccccc2)N2CN1C(=O)c1c(O)c(=O)ccn12 (single isomer, unassigned) [Compound 153BB, (9*R,18*R,*E)-3,4-difluoro-12-hydroxy-9-(methoxymethyl)-18-phenyl-6,9-dihydro-18H-10,17-methanobenzo[b]pyrido[1,2-f][1]oxa[5,6,9]triazacyclotridecine-11,13-dione]	2.6	> 100
CC[C@@H]1/C=C/COc2c(F)cccc2[C@@H](c2ccccn2)N2CN1C(=O)c1c(O)c(=O)ccn12 (single isomer, unassigned) [Compound 154AA, (9*R,18*S,*E)-9-ethyl-4-fluoro-12-hydroxy-18-(pyridin-2-yl)-6,9-dihydro-18H-10,17-methanobenzo[b]pyrido[1,2-f][1]oxa[5,6,9]triazacyclotridecine-11,13-dione]	> 50	> 100
CC[C@H]1/C=C/COc2c(F)cccc2[C@@H](c2ccccn2)N2CN1C(=O)c1c(O)c(=O)ccn12 (single isomer, unassigned) [Compound 154AB, (9*S,18*S,*E)-9-ethyl-4-fluoro-12-hydroxy-18-(pyridin-2-yl)-6,9-dihydro-18H-10,17-methanobenzo[b]pyrido[1,2-f][1]oxa[5,6,9]triazacyclotridecine-11,13-dione]	> 50	> 100
CC[C@@H]1/C=C/COc2c(F)cccc2[C@H](c2ccccn2)N2CN1C(=O)c1c(O)c(=O)ccn12 (single isomer, unassigned) [Compound 154BA, (9*R,18*R,*E)-9-ethyl-4-fluoro-12-hydroxy-18-(pyridin-2-yl)-6,9-dihydro-18H-10,17-methanobenzo[b]pyrido[1,2-f][1]oxa[5,6,9]triazacyclotridecine-11,13-dione]	6.8	> 100
CC[C@H]1/C=C/COc2c(F)cccc2[C@H](c2ccccn2)N2CN1C(=O)c1c(O)c(=O)ccn12 (single isomer, unassigned) [Compound 154BB, (9*S,18*R,*E)-9-ethyl-4-fluoro-12-hydroxy-18-(pyridin-2-yl)-6,9-dihydro-18H-10,17-methanobenzo[b]pyrido[1,2-f][1]oxa[5,6,9]triazacyclotridecine-11,13-dione]	3.4	> 100
Cc1ccccc1[C@@H]1c2ccc(F)c(F)c2OC/C=C\CN2CN1n1ccc(=O)c(O)c1C2=O (single isomer, unassigned) [Compound 155A, (18*R,*Z)-3,4-difluoro-12-hydroxy-18-(o-tolyl)-6,9-dihydro-18H-10,17-methanobenzo[b]pyrido[1,2-f][1]oxa[5,6,9]triazacyclotridecine-11,13-dione]	1.2	> 100
Cc1ccccc1C1c2ccc(F)c(F)c2OC/C=C\CN2CN1n1ccc(=O)c(O)c1C2=O (single isomer, unassigned) [Compound 155B, (18*S,*Z)-3,4-difluoro-12-hydroxy-18-(o-tolyl)-6,9-dihydro-18H-10,17-methanobenzo[b]pyrido[1,2-f][1]oxa[5,6,9]triazacyclotridecine-11,13-dione]	> 50	> 100
O=C1c2c(O)c(=O)ccn2N2CN1C1(/C=C/COc3cccc4c3[C@H]2c2ccccc2SC4)CCCC1 (single isomer, unassigned) [Compound 156A, (17a′*S,*E)-12′-hydroxy-2′,17a′-dihydro-6′H-spiro[cyclopentane-1,9′-[3,4](epiprop[1]en[1]yl[3]ylidene)[10,17]methanobenzo[6,7]thiepino[4,5-c]pyrido[1,2-f][1]oxa[5,6,9]triazacyclotridecine]-11′,13′-dione]	0.51	> 100
CC(C)(C)[C@H]1/C=C/COc2cccc3c2[C@@H](c2ccccc2SC3)N2CN1C(=O)c1c(O)c(=O)ccn12 (single isomer, unassigned) [Compound 157A, (9*R,17a*S,*E)-9-(tert-butyl)-12-hydroxy-2,6,9,17a-tetrahydro-3,4-(epiprop[1]en[1]yl[3]ylidene)-10,17-methanobenzo[6,7]thiepino[4,5-c]pyrido[1,2-f][1]oxa[5,6,9]triazacyclotridecine-11,13-dione]	1.3	> 100
CC(C)(C)[C@@H]1/C=C/COc2cccc3c2[C@H](c2ccccc2SC3)N2CN1C(=O)c1c(O)c(=O)ccn12 (single isomer, unassigned) [Compound 157B, (9*S,17a*R,*E)-9-(tert-butyl)-12-hydroxy-2,6,9,17a-tetrahydro-3,4-(epiprop[1]en[1]yl[3]ylidene)-10,17-methanobenzo[6,7]thiepino[4,5-c]pyrido[1,2-f][1]oxa[5,6,9]triazacyclotridecine-11,13-dione]	> 50	> 100
CC(C)c1ccccc1[C@H]1c2ccc(F)c(F)c2OC/C=C\CN2CN1n1ccc(=O)c(O)c1C2=O (single isomer, unassigned) [Compound 158A, (18*S,*Z)-3,4-difluoro-12-hydroxy-18-(2-isopropylphenyl)-6,9-dihydro-18H-10,17-methanobenzo[b]pyrido[1,2-f][1]oxa[5,6,9]triazacyclotridecine-11,13-dione]	> 50	> 100
CC(C)c1ccccc1[C@@H]1c2ccc(F)c(F)c2OC/C=C\CN2CN1n1ccc(=O)c(O)c1C2=O (single isomer, unassigned) [Compound 158B, (18*R,*Z)-3,4-difluoro-12-hydroxy-18-(2-isopropylphenyl)-6,9-dihydro-18H-10,17-methanobenzo[b]pyrido[1,2-f][1]oxa[5,6,9]triazacyclotridecine-11,13-dione]	> 50	> 100
O=C1c2c(O)c(=O)ccn2N2CN1C1(/C=C/COc3cc(F)c(F)c4c3[C@@H]2c2ccccc2SC4)CCC1 (single isomer, unassigned) [Compound 159A, (17a′*R,*E)-24′,25′-difluoro-12′-hydroxy-2′,17a′-dihydro-6′H-spiro[cyclobutane-1,9′-[3,4](epiprop[1]en[1]yl[3]ylidene)[10,17]methanobenzo[6,7]thiepino[4,5-c]pyrido[1,2-f][1]oxa[5,6,9]triazacyclotridecine]-11′,13′-dione]	> 50	> 100
O=C1c2c(O)c(=O)ccn2N2CN1C1(/C=C/COc3cc(F)c(F)c4c3[C@H]2c2ccccc2SC4)CCC1 (single isomer, unassigned) [Compound 159B, (17a′*S,*E)-24′,25′-difluoro-12′-hydroxy-2′,17a′-dihydro-6′H-spiro[cyclobutane-1,9′-[3,4](epiprop[1]en[1]yl[3]ylidene)[10,17]methanobenzo[6,7]thiepino[4,5-c]pyrido[1,2-f][1]oxa[5,6,9]triazacyclotridecine]-11′,13′-dione]	0.19	> 100
CC[C@H]1/C=C/COc2c(ccc(F)c2F)[C@@H](c2ccccn2)N2CN1C(=O)c1c(O)c(=O)ccn12 (single isomer, unassigned) [Compound 160AA, (9*S,18*S,*E)-9-ethyl-3,4-difluoro-12-hydroxy-18-(pyridin-2-yl)-6,9-dihydro-18H-10,17-methanobenzo[b]pyrido[1,2-f][1]oxa[5,6,9]triazacyclotridecine-11,13-dione]	5.2	> 100
CC[C@@H]1/C=C/COc2c(ccc(F)c2F)[C@@H](c2ccccn2)N2CN1C(=O)c1c(O)c(=O)ccn12 (single isomer, unassigned) [Compound 160AB, (9*R,18*S,*E)-9-ethyl-3,4-difluoro-12-hydroxy-18-(pyridin-2-yl)-6,9-dihydro-18H-10,17-methanobenzo[b]pyrido[1,2-f][1]oxa[5,6,9]triazacyclotridecine-11,13-dione]	2.8	> 100
CC[C@H]1/C=C/COc2c(ccc(F)c2F)[C@H](c2ccccn2)N2CN1C(=O)c1c(O)c(=O)ccn12 (single isomer, unassigned) [Compound 160BA, (9*S,18*R,*E)-9-ethyl-3,4-difluoro-12-hydroxy-18-(pyridin-2-yl)-6,9-dihydro-18H-10,17-methanobenzo[b]pyrido[1,2-f][1]oxa[5,6,9]triazacyclotridecine-11,13-dione]	> 50	> 100
